Reference: patent US11331369B2, “Endoparasitic depsipeptides” (Zoetis Services LLC, priority 2017, dated 2022)

These compounds were tested on microfilariae of Dirofilaria immitis (assay: Dirofilaria immitis, Microfilaria (DiMF) In vitro Assay). Conditions: 72 h, read-out: DiMF Minimum Effective Dose (MED), approximately 72 hours incubation, microfilariae assessed for survival or paralysis.
Assay type: cell-based

SMILES | minimal effective concentration
CC(C)C[C@H]1C(=O)O[C@H](Cc2ccc(Cn3cc(CN)cn3)cc2)C(=O)N(C)[C@@H](CC(C)C)C(=O)O[C@H](C)C(=O)N(C)[C@@H](CC(C)C)C(=O)O[C@H](Cc2ccccc2)C(=O)N(C)[C@@H](CC(C)C)C(=O)O[C@H](C)C(=O)N1C [Example 2-59, (3S,6R,9S,12R,15S,18R,21S,24R)-6-(4-((4-(aminomethyl)-1H-pyrazol-1-yl)methyl)benzyl)-18-benzyl-3,9,15,21-tetraisobutyl-4,10,12,16,22,24-hexamethyl-1,7,13,19-tetraoxa-4,10,16,22-tetraazacyclotetracosan-2,5,8,11,14,17,20,23-octaone] | 0.01 to 0.1 µM
CC(C)C[C@H]1C(=O)O[C@H](Cc2ccc(Cn3ccnc3C(C)(C)C)cc2)C(=O)N(C)[C@@H](CC(C)C)C(=O)O[C@H](C)C(=O)N(C)[C@@H](CC(C)C)C(=O)O[C@H](Cc2ccc(Cn3ccnc3C(C)(C)C)cc2)C(=O)N(C)[C@@H](CC(C)C)C(=O)O[C@H](C)C(=O)N1C [Example 6-6, (3S,6R,9S,12R,15S,18R,21S,24R)-6,18-bis[[4-[(2-tert-butylimidazol-1-yl)methyl]phenyl]methyl]-3,9,15,21-tetraisobutyl-4,10,12,16,22,24-hexamethyl-1,7,13,19-tetraoxa-4,10,16,22-tetrazacyclotetracosane-2,5,8,11,14,17,20,23-octaone] | 0.01 to 0.1 µM
CC(C)C[C@H]1C(=O)O[C@H](Cc2ccc(Cn3ccc(Br)n3)cc2)C(=O)N(C)[C@@H](CC(C)C)C(=O)O[C@H](C)C(=O)N(C)[C@@H](CC(C)C)C(=O)O[C@H](Cc2ccc(Cn3ccc(Br)n3)cc2)C(=O)N(C)[C@@H](CC(C)C)C(=O)O[C@H](C)C(=O)N1C [Example 1b-63, (3S,6R,9S,12R,15S,18R,21S,24R)-6,18-bis(4-((3-bromo-1H-pyrazol-1-yl)methyl)benzyl)-3,9,15,21-tetraisobutyl-4,10,12,16,22,24-hexamethyl-1,7,13,19-tetraoxa-4,10,16,22-tetraazacyclotetracosan-2,5,8,11,14,17,20,23-octaone] | 0.01 to 0.1 µM
CC(C)C[C@H]1C(=O)O[C@H](Cc2ccc(N3CCCC(F)(F)C3)cc2)C(=O)N(C)[C@@H](CC(C)C)C(=O)O[C@H](C)C(=O)N(C)[C@@H](CC(C)C)C(=O)O[C@H](Cc2ccc(CN3CCCC(F)(F)C3)cc2)C(=O)N(C)[C@@H](CC(C)C)C(=O)O[C@H](C)C(=O)N1C [Example 9-5, (3S,6R,9S,12R,15S,18R,21S,24R)-6-(4-(3,3-difluoropiperidin-1-yl)benzyl)-18-(4-((3,3-difluoropiperidin-1-yl)methyl)benzyl)-3,9,15,21-tetraisobutyl-4,10,12,16,22,24-hexamethyl-1,7,13,19-tetraoxa-4,10,16,22-tetraazacyclotetracosan-2,5,8,11,14,17,20,23-octaone] | 0.01 to 0.1 µM
CC(C)C[C@H]1C(=O)O[C@H](Cc2ccc(Cn3cc4c(n3)CNC4)cc2)C(=O)N(C)[C@@H](CC(C)C)C(=O)O[C@H](C)C(=O)N(C)[C@@H](CC(C)C)C(=O)O[C@H](Cc2ccccc2)C(=O)N(C)[C@@H](CC(C)C)C(=O)O[C@H](C)C(=O)N1C [Example 10-27, (3S,6R,9S,12R,15S,18R,21S,24R)-6-benzyl-18-(4-((5,6-dihydropyrrolo[3,4-c]pyrazol-2(4H)-yl)methyl)benzyl)-3,9,15,21-tetraisobutyl-4,10,12,16,22,24-hexamethyl-1,7,13,19-tetraoxa-4,10,16,22-tetraazacyclotetracosan-2,5,8,11,14,17,20,23-octaone] | 0.01 to 0.1 µM
Cc1nn(Cc2ccc(C[C@H]3OC(=O)[C@H](CC(C)C)N(C)C(=O)[C@@H](C)OC(=O)[C@H](CC(C)C)N(C)C(=O)[C@@H](Cc4ccccc4)OC(=O)[C@H](CC(C)C)N(C)C(=O)[C@@H](C)OC(=O)[C@H](CC(C)C)N(C)C3=O)cc2)c(C)c1O [Example 2-44, (3S,6R,9S,12R,15S,18R,21S,24R)-6-benzyl-18-(4-((4-hydroxy-3,5-dimethyl-1H-pyrazol-1-yl)methyl)benzyl)-3,9,15,21-tetraisobutyl-4,10,12,16,22,24-hexamethyl-1,7,13,19-tetraoxa-4,10,16,22-tetraazacyclotetracosan-2,5,8,11,14,17,20,23-octaone] | 0.001 to 0.01 µM
Cc1nn(Cc2ccc(C[C@H]3OC(=O)[C@H](CC(C)C)N(C)C(=O)[C@@H](C)OC(=O)[C@H](CC(C)C)N(C)C(=O)[C@@H](Cc4ccccc4)OC(=O)[C@H](CC(C)C)N(C)C(=O)[C@@H](C)OC(=O)[C@H](CC(C)C)N(C)C3=O)cc2)c(C)c1Br [Example 2-17, (3S,6R,9S,12R,15S,18R,21S,24R)-6-benzyl-18-(4-((4-bromo-3,5-dimethyl-1H-pyrazol-1-yl)methyl)benzyl)-3,9,15,21-tetraisobutyl-4,10,12,16,22,24-hexamethyl-1,7,13,19-tetraoxa-4,10,16,22-tetraazacyclotetracosan-2,5,8,11,14,17,20,23-octaone] | 0.01 to 0.1 µM
CC(C)C[C@H]1C(=O)O[C@H](Cc2ccc(Cn3nc(C(C)C)cc3C(C)C)cc2)C(=O)N(C)[C@@H](CC(C)C)C(=O)O[C@H](C)C(=O)N(C)[C@@H](CC(C)C)C(=O)O[C@H](Cc2ccccc2)C(=O)N(C)[C@@H](CC(C)C)C(=O)O[C@H](C)C(=O)N1C [Example 2-54, (3S,6R,9S,12R,15S,18R,21S,24R)-6-benzyl-18-(4-((3,5-diisopropyl-1H-pyrazol-1-yl)methyl)benzyl)-3,9,15,21-tetraisobutyl-4,10,12,16,22,24-hexamethyl-1,7,13,19-tetraoxa-4,10,16,22-tetraazacyclotetracosan-2,5,8,11,14,17,20,23-octaone] | 0.01 to 0.1 µM
CC(C)C[C@H]1C(=O)O[C@H](Cc2ccc(Cn3cc(C(F)F)cn3)cc2)C(=O)N(C)[C@@H](CC(C)C)C(=O)O[C@H](C)C(=O)N(C)[C@@H](CC(C)C)C(=O)O[C@H](Cc2ccc(Cn3cc(C(F)F)cn3)cc2)C(=O)N(C)[C@@H](CC(C)C)C(=O)O[C@H](C)C(=O)N1C [Example 1b-62, (3S,6R,9S,12R,15S,18R,21S,24R)-6,18-bis(4-((4-(difluoromethyl)-1H-pyrazol-1-yl)methyl)benzyl)-3,9,15,21-tetraisobutyl-4,10,12,16,22,24-hexamethyl-1,7,13,19-tetraoxa-4,10,16,22-tetraazacyclotetracosan-2,5,8,11,14,17,20,23-octaone] | 0.001 to 0.01 µM
COCc1nccn1Cc1ccc(C[C@H]2OC(=O)[C@H](CC(C)C)N(C)C(=O)[C@@H](C)OC(=O)[C@H](CC(C)C)N(C)C(=O)[C@@H](Cc3ccc(Cn4ccnc4COC)cc3)OC(=O)[C@H](CC(C)C)N(C)C(=O)[C@@H](C)OC(=O)[C@H](CC(C)C)N(C)C2=O)cc1 [Example 6-19, (3S,6R,9S,12R,15S,18R,21S,24R)-3,9,15,21-tetraisobutyl-6,18-bis(4-((2-(methoxymethyl)-1H-imidazol-1-yl)methyl)benzyl)-4,10,12,16,22,24-hexamethyl-1,7,13,19-tetraoxa-4,10,16,22-tetraazacyclotetracosan-2,5,8,11,14,17,20,23-octaone] | 0.001 to 0.01 µM
CC(C)C[C@H]1C(=O)O[C@H](Cc2ccc(Cn3cc(CCO)cn3)cc2)C(=O)N(C)[C@@H](CC(C)C)C(=O)O[C@H](C)C(=O)N(C)[C@@H](CC(C)C)C(=O)O[C@H](Cc2ccc(Cn3cc(CCO)cn3)cc2)C(=O)N(C)[C@@H](CC(C)C)C(=O)O[C@H](C)C(=O)N1C [Example 1b-75, (3S,6R,9S,12R,15S,18R,21S,24R)-6,18-bis(4-((4-(2-hydroxyethyl)-1H-pyrazol-1-yl)methyl)benzyl)-3,9,15,21-tetraisobutyl-4,10,12,16,22,24-hexamethyl-1,7,13,19-tetraoxa-4,10,16,22-tetraazacyclotetracosan-2,5,8,11,14,17,20,23-octaone] | 0.01 to 0.1 µM
Cc1cnn(Cc2ccc(C[C@H]3OC(=O)[C@H](CC(C)C)N(C)C(=O)[C@@H](C)OC(=O)[C@H](CC(C)C)N(C)C(=O)[C@@H](Cc4ccc(Cn5nc(C)c(S(=O)(=O)N6CCCCC6)c5C)cc4)OC(=O)[C@H](CC(C)C)N(C)C(=O)[C@@H](C)OC(=O)[C@H](CC(C)C)N(C)C3=O)cc2)c1 [Example 1a-25, (3S,6R,9S,12R,15S,18R,21S,24R)-6-(4-((3,5-dimethyl-4-(piperidin-1-ylsulfonyl)-1H-pyrazol-1-yl)methyl)benzyl)-3,9,15,21-tetraisobutyl-4,10,12,16,22,24-hexamethyl-18-(4-((4-methyl-1H-pyrazol-1-yl)methyl)benzyl)-1,7,13,19-tetraoxa-4,10,16,22-tetraazacyclotetracosan-2,5,8,11,14,17,20,23-octaone] | 0.01 to 0.1 µM
CC(C)C[C@H]1C(=O)O[C@H](Cc2ccc(Cn3ccnc3I)cc2)C(=O)N(C)[C@@H](CC(C)C)C(=O)O[C@H](C)C(=O)N(C)[C@@H](CC(C)C)C(=O)O[C@H](Cc2ccccc2)C(=O)N(C)[C@@H](CC(C)C)C(=O)O[C@H](C)C(=O)N1C [Example 8-10, (3S,6R,9S,12R,15S,18R,21S,24R)-6-benzyl-18-(4-((2-iodo-1H-imidazol-1-yl)methyl)benzyl)-3,9,15,21-tetraisobutyl-4,10,12,16,22,24-hexamethyl-1,7,13,19-tetraoxa-4,10,16,22-tetraazacyclotetracosan-2,5,8,11,14,17,20,23-octaone] | 0.01 to 0.1 µM
CC(C)C[C@H]1C(=O)O[C@H](Cc2ccc(Cn3ccc(C(C)C)n3)cc2)C(=O)N(C)[C@@H](CC(C)C)C(=O)O[C@H](C)C(=O)N(C)[C@@H](CC(C)C)C(=O)O[C@H](Cc2ccccc2)C(=O)N(C)[C@@H](CC(C)C)C(=O)O[C@H](C)C(=O)N1C [Example 2-83, (3S,6R,9S,12R,15S,18R,21S,24R)-6-benzyl-3,9,15,21-tetraisobutyl-18-(4-((3-isopropyl-1H-pyrazol-1-yl)methyl)benzyl)-4,10,12,16,22,24-hexamethyl-1,7,13,19-tetraoxa-4,10,16,22-tetraazacyclotetracosan-2,5,8,11,14,17,20,23-octaone] | 0.01 to 0.1 µM
